# According to the supplement of paper PMC12463676, “Small-molecule dissolution of stress granules by redox modulation benefits ALS models” (Nature Chemical Biology, 2025):
# Columns and labels:
# [1] = compound: NC(=O)CCCCC1CCSS1 [lipoamide]; experiment: thermal stability z-score vs DMSO; higher = more thermally stabilized by treatment; conditions: HeLa, lipoamide concentration 100 µM
# Procedure: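 Cellular thermal proteome profiling in HeLa cells. Cells were treated with 100 µM lipoamide for 1 h, with or without 1 mM arsenate for a further 1 h, then heated to ten temperatures (37-66.3 °C), and soluble protein was quantified by TMT mass spectrometry relative to 0.1% DMSO controls. The thermal stability score (sum of log2 fold changes minus the abundance score) was transformed to a z-score; mean of n = 3 experiments.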
# [2] = compound: O=[As]([O-])(O)O.[K+] [potassium arsenate]; experiment: as above; conditions: HeLa; arsenate concentration 1 mM
# Procedure: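 Cellular thermal proteome profiling in HeLa cells treated with 1 mM arsenate for 1 h (DMSO pretreatment), heated to ten temperatures (37-66.3 °C). Soluble protein was quantified by TMT mass spectrometry relative to DMSO controls; the thermal stability score was transformed to a z-score; mean of n = 3 experiments.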
# [3] = arsenate co-treatment: 1 mM arsenate 1 h
# 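Also: each temperature applied for 3 min, abundance score taken as mean log2 fold change at the two lowest temperatures, z-score obtained by mean subtraction and division by SD.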
# UniProt P04632, sequence (P04632 whole entry): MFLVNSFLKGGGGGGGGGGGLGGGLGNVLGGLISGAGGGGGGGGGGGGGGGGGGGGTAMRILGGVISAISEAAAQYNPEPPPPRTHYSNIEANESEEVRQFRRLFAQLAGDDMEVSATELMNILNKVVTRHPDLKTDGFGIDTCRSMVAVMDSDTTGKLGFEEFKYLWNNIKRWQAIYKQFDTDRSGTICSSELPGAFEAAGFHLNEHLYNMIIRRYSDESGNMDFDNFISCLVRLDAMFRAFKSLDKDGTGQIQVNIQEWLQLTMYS
# UniProt O75828, sequence (O75828 whole entry): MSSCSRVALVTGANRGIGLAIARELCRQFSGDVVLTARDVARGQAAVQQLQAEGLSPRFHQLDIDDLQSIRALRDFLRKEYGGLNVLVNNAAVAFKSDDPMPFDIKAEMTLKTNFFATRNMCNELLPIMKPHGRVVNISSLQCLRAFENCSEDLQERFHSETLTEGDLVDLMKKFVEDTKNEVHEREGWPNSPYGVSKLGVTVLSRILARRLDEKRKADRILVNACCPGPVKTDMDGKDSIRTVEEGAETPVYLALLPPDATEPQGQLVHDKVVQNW
# UniProt P49589, sequence (P49589 whole entry): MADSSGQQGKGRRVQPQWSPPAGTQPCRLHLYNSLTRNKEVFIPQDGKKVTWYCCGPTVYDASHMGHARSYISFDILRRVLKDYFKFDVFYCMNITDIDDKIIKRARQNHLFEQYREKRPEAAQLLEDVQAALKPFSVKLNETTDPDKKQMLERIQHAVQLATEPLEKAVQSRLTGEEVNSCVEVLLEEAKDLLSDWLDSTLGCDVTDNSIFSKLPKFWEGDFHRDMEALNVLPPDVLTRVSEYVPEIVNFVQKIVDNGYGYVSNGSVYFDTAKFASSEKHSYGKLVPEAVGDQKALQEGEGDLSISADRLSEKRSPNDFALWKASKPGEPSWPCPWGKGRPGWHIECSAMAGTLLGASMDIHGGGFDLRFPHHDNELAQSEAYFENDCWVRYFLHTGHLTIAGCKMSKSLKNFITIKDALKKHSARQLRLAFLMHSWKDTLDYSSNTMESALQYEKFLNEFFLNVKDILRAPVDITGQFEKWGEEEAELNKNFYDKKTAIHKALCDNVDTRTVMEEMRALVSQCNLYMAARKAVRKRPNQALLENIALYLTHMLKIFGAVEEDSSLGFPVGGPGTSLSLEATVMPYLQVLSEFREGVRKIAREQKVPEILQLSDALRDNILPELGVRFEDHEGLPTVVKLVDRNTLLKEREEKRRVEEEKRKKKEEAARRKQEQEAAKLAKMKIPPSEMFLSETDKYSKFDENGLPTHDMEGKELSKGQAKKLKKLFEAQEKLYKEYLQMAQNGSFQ
# UniProt Q96LW7, sequence (Q96LW7 whole entry): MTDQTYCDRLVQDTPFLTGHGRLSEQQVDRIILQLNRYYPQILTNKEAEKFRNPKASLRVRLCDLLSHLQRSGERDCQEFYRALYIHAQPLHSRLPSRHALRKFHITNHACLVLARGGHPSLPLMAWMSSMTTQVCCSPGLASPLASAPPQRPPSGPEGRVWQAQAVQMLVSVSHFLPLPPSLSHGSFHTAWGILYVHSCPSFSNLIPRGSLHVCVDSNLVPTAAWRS
# UniProt Q8N4T8, sequence (Q8N4T8 whole entry): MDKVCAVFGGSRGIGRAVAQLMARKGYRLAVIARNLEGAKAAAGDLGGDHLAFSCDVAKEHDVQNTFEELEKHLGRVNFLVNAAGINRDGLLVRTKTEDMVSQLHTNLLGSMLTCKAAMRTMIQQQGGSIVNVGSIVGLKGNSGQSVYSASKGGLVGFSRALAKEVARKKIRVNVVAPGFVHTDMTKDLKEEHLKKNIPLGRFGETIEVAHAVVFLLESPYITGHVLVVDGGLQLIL
# UniProt Q6P4E1, sequence (Q6P4E1 whole entry): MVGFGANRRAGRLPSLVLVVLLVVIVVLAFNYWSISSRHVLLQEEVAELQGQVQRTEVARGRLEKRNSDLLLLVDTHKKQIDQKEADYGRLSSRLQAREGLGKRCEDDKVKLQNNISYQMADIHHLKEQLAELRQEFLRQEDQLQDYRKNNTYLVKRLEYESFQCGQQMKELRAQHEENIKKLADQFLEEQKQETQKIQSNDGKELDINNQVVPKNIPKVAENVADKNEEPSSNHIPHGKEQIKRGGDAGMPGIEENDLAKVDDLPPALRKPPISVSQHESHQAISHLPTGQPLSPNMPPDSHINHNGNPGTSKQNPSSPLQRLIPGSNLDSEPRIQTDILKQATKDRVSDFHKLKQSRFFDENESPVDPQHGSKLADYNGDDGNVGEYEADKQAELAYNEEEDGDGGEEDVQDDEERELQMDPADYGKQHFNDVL
# UniProt Q5T9S5, sequence (Q5T9S5 whole entry): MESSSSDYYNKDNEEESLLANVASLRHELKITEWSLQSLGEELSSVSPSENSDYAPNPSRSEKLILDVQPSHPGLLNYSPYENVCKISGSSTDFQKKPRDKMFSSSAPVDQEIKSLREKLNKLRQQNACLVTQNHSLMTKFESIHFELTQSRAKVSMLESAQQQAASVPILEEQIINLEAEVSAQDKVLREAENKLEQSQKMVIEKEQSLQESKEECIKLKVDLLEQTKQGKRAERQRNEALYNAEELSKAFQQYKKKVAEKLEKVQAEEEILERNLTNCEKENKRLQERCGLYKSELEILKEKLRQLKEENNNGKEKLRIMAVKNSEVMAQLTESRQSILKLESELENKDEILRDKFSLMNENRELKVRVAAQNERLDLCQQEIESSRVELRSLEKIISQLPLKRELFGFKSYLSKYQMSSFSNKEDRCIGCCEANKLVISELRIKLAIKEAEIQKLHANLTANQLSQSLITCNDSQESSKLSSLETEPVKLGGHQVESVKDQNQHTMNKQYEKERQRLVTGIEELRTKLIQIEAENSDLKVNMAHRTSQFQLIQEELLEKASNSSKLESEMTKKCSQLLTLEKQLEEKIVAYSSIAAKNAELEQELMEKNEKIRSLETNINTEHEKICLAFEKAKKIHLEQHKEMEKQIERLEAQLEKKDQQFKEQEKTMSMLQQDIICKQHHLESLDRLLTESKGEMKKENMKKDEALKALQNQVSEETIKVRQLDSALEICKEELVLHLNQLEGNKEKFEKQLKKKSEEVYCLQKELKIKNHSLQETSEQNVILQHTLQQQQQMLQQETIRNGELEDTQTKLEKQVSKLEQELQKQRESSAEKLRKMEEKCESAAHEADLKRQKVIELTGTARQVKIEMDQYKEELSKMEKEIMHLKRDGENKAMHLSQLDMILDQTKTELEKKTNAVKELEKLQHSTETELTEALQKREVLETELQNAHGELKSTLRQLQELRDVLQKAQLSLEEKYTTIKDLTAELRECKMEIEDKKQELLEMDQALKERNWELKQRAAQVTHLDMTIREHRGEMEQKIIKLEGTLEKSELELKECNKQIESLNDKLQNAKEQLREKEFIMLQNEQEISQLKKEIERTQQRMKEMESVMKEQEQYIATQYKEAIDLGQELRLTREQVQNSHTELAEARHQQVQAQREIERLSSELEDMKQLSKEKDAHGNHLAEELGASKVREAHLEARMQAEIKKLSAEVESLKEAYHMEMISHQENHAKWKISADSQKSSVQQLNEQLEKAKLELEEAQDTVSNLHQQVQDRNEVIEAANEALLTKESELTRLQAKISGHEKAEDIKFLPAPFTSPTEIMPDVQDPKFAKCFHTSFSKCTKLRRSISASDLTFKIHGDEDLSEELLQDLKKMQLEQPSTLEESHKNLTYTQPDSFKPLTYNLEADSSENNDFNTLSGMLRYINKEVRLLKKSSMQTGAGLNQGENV
# UniProt Q13185, sequence (Q13185 whole entry): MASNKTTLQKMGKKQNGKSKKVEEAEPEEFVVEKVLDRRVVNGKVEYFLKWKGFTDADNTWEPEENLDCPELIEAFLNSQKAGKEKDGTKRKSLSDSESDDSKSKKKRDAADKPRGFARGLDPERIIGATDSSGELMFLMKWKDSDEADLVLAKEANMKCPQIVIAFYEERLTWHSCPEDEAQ
# UniProt Q9Y2V2, sequence (Q9Y2V2 whole entry): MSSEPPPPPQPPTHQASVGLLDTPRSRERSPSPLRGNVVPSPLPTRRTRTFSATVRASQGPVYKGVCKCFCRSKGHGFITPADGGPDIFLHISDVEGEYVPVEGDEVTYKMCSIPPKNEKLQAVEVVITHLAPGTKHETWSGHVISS
# UniProt P20810, sequence (P20810 whole entry): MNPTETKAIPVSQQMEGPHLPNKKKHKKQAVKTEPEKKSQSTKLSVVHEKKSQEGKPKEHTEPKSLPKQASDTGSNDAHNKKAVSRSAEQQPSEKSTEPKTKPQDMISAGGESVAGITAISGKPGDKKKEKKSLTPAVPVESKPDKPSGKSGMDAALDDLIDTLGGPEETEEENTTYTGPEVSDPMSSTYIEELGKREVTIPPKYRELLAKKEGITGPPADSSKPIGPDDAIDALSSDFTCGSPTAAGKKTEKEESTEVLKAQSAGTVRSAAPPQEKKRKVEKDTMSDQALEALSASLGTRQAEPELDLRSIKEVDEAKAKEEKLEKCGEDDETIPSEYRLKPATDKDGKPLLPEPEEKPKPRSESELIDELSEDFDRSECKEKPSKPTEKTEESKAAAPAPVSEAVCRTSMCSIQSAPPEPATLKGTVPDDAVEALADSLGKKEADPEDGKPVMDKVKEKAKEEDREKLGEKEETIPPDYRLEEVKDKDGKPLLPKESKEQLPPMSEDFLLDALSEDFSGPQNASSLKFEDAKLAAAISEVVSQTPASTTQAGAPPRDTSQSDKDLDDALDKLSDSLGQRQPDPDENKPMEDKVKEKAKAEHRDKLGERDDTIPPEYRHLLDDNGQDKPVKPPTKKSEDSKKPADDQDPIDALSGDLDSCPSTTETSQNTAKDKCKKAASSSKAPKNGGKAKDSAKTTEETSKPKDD
# UniProt P16152, sequence (P16152 whole entry): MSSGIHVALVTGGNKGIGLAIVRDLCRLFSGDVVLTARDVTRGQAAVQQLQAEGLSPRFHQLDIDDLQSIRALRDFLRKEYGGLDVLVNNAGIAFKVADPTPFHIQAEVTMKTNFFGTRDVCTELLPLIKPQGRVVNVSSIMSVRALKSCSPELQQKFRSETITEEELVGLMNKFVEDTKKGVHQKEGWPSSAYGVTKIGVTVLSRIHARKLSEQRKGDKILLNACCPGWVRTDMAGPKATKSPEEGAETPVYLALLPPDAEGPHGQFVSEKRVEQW
target,measurement,setting,value
CAPN7 (UniProt Q9Y6W3),thermal stability z-score,[1]; [3],0.28
same,thermal stability z-score,[1]; arsenate co-treatment: none,0.65
same,thermal stability z-score,[2],0.922
CAPN15 (UniProt O75808),thermal stability z-score,[1]; [3],0.0525
same,thermal stability z-score,[1]; arsenate co-treatment: none,0.0796
same,thermal stability z-score,[2],-0.24
CAPNS1 (UniProt P04632),thermal stability z-score,[1]; [3],0.532
same,thermal stability z-score,[1]; arsenate co-treatment: none,0.582
same,thermal stability z-score,[2],0.0106
CAPRIN1 (UniProt Q14444),thermal stability z-score,[1]; [3],0.381
same,thermal stability z-score,[1]; arsenate co-treatment: none,0.754
same,thermal stability z-score,[2],0.295
CAPZA1 (UniProt P52907),thermal stability z-score,[1]; [3],-0.236
same,thermal stability z-score,[1]; arsenate co-treatment: none,0.183
same,thermal stability z-score,[2],0.38
CAPZA2 (UniProt P47755),thermal stability z-score,[1]; [3],-0.00372
same,thermal stability z-score,[1]; arsenate co-treatment: none,0.906
same,thermal stability z-score,[2],0.697
CAPZB (UniProt P47756),thermal stability z-score,[1]; [3],-0.059
same,thermal stability z-score,[1]; arsenate co-treatment: none,0.144
same,thermal stability z-score,[2],0.454
CARD19 (UniProt Q96LW7),thermal stability z-score,[1]; [3],0.507
same,thermal stability z-score,[1]; arsenate co-treatment: none,1.37
same,thermal stability z-score,[2],0.524
CARHSP1 (UniProt Q9Y2V2),thermal stability z-score,[1]; [3],0.147
same,thermal stability z-score,[1]; arsenate co-treatment: none,0.812
same,thermal stability z-score,[2],-5.57
CARM1 (UniProt Q86X55),thermal stability z-score,[1]; [3],0.99
same,thermal stability z-score,[1]; arsenate co-treatment: none,0.944
same,thermal stability z-score,[2],0.086
CARNMT1 (UniProt Q8N4J0),thermal stability z-score,[1]; [3],-0.0735
same,thermal stability z-score,[1]; arsenate co-treatment: none,-0.179
same,thermal stability z-score,[2],0.59
CARS2 (UniProt Q9HA77),thermal stability z-score,[1]; [3],-0.273
same,thermal stability z-score,[1]; arsenate co-treatment: none,-0.517
same,thermal stability z-score,[2],-1.39
CARS (UniProt P49589),thermal stability z-score,[1]; [3],-0.705
same,thermal stability z-score,[1]; arsenate co-treatment: none,-0.132
same,thermal stability z-score,[2],-0.416
CASC3 (UniProt O15234),thermal stability z-score,[1]; [3],0.25
same,thermal stability z-score,[1]; arsenate co-treatment: none,0.544
same,thermal stability z-score,[2],-1.15
CASC4 (UniProt Q6P4E1),thermal stability z-score,[1]; [3],0.245
same,thermal stability z-score,[1]; arsenate co-treatment: none,0.111
same,thermal stability z-score,[2],0.0247
CASC5 (UniProt Q8NG31),thermal stability z-score,[1]; [3],-0.0952
same,thermal stability z-score,[1]; arsenate co-treatment: none,-0.0158
same,thermal stability z-score,[2],0.219
CASK (UniProt O14936),thermal stability z-score,[1]; [3],0.388
same,thermal stability z-score,[1]; arsenate co-treatment: none,0.281
same,thermal stability z-score,[2],-0.0604
CASKIN2 (UniProt Q8WXE0),thermal stability z-score,[1]; [3],-0.798
same,thermal stability z-score,[1]; arsenate co-treatment: none,0.441
same,thermal stability z-score,[2],0.938
CASP1 (UniProt P29466),thermal stability z-score,[1]; [3],-1.23
same,thermal stability z-score,[1]; arsenate co-treatment: none,-0.846
same,thermal stability z-score,[2],-0.416
CASP2 (UniProt P42575),thermal stability z-score,[1]; [3],-0.172
same,thermal stability z-score,[1]; arsenate co-treatment: none,0.304
same,thermal stability z-score,[2],-1
CASP3 (UniProt P42574),thermal stability z-score,[1]; [3],0.382
same,thermal stability z-score,[1]; arsenate co-treatment: none,-0.0479
same,thermal stability z-score,[2],-0.737
CASP4 (UniProt P49662),thermal stability z-score,[1]; [3],0.133
same,thermal stability z-score,[1]; arsenate co-treatment: none,0.419
same,thermal stability z-score,[2],0.496
CASP6 (UniProt P55212),thermal stability z-score,[1]; [3],1.05
same,thermal stability z-score,[1]; arsenate co-treatment: none,1.33
same,thermal stability z-score,[2],0.158
CASP7 (UniProt P55210),thermal stability z-score,[1]; [3],0.596
same,thermal stability z-score,[1]; arsenate co-treatment: none,0.147
same,thermal stability z-score,[2],-0.753
CASP8 (UniProt Q14790),thermal stability z-score,[1]; [3],-2.33
same,thermal stability z-score,[1]; arsenate co-treatment: none,-0.106
same,thermal stability z-score,[2],-0.648
CAST (UniProt P20810),thermal stability z-score,[1]; [3],0.525
same,thermal stability z-score,[1]; arsenate co-treatment: none,0.428
same,thermal stability z-score,[2],0.122
CAT (UniProt P04040),thermal stability z-score,[1]; [3],0.883
same,thermal stability z-score,[1]; arsenate co-treatment: none,1.41
same,thermal stability z-score,[2],0.346
CAV1 (UniProt Q03135),thermal stability z-score,[1]; [3],0.49
same,thermal stability z-score,[1]; arsenate co-treatment: none,0.74
same,thermal stability z-score,[2],1.02
CAV2 (UniProt P51636),thermal stability z-score,[1]; [3],1.26
same,thermal stability z-score,[1]; arsenate co-treatment: none,-0.268
same,thermal stability z-score,[2],1.51
CBFB (UniProt Q13951),thermal stability z-score,[1]; [3],-0.0158
same,thermal stability z-score,[1]; arsenate co-treatment: none,-0.159
same,thermal stability z-score,[2],0.352
CBL (UniProt P22681),thermal stability z-score,[1]; [3],0.255
same,thermal stability z-score,[1]; arsenate co-treatment: none,0.154
same,thermal stability z-score,[2],-0.368
CBLB (UniProt Q13191),thermal stability z-score,[1]; [3],0.338
same,thermal stability z-score,[1]; arsenate co-treatment: none,-0.251
same,thermal stability z-score,[2],-0.0258
CBR1 (UniProt P16152),thermal stability z-score,[1]; [3],0.136
same,thermal stability z-score,[1]; arsenate co-treatment: none,0.208
same,thermal stability z-score,[2],0.879
CBR3 (UniProt O75828),thermal stability z-score,[1]; [3],0.347
same,thermal stability z-score,[1]; arsenate co-treatment: none,-0.0437
same,thermal stability z-score,[2],0.282
CBR4 (UniProt Q8N4T8),thermal stability z-score,[1]; [3],-0.276
same,thermal stability z-score,[1]; arsenate co-treatment: none,0.0911
same,thermal stability z-score,[2],0.168
CBSL|CBS,thermal stability z-score,[1]; [3],-1.81
same,thermal stability z-score,[1]; arsenate co-treatment: none,-1.33
same,thermal stability z-score,[2],0.256
CBX1 (UniProt P83916),thermal stability z-score,[1]; [3],0.402
same,thermal stability z-score,[1]; arsenate co-treatment: none,0.214
same,thermal stability z-score,[2],0.0814
CBX3 (UniProt Q13185),thermal stability z-score,[1]; [3],0.366
same,thermal stability z-score,[1]; arsenate co-treatment: none,0.43
same,thermal stability z-score,[2],1.76
CBX4 (UniProt O00257),thermal stability z-score,[1]; [3],-0.406
same,thermal stability z-score,[1]; arsenate co-treatment: none,0.212
same,thermal stability z-score,[2],0.529
CBX5 (UniProt P45973),thermal stability z-score,[1]; [3],-0.00136
same,thermal stability z-score,[1]; arsenate co-treatment: none,0.383
same,thermal stability z-score,[2],-0.0201
CBX8 (UniProt Q9HC52),thermal stability z-score,[1]; [3],0.035
same,thermal stability z-score,[1]; arsenate co-treatment: none,0.14
same,thermal stability z-score,[2],-0.0579
CC2D1A (UniProt Q6P1N0),thermal stability z-score,[1]; [3],0.117
same,thermal stability z-score,[1]; arsenate co-treatment: none,0.0816
same,thermal stability z-score,[2],-0.0172
CC2D1B (UniProt Q5T0F9),thermal stability z-score,[1]; [3],-0.661
same,thermal stability z-score,[1]; arsenate co-treatment: none,-0.8
same,thermal stability z-score,[2],-0.125
CCAR1 (UniProt Q8IX12),thermal stability z-score,[1]; [3],0.657
same,thermal stability z-score,[1]; arsenate co-treatment: none,0.27
same,thermal stability z-score,[2],-0.106
CCAR2 (UniProt Q8N163),thermal stability z-score,[1]; [3],-0.42
same,thermal stability z-score,[1]; arsenate co-treatment: none,-0.615
same,thermal stability z-score,[2],0.358
CCBL1|KYAT1,thermal stability z-score,[1]; [3],0.0425
same,thermal stability z-score,[1]; arsenate co-treatment: none,0.343
same,thermal stability z-score,[2],0.447
CCDC6 (UniProt Q16204),thermal stability z-score,[1]; [3],-0.497
same,thermal stability z-score,[1]; arsenate co-treatment: none,-0.185
same,thermal stability z-score,[2],-0.505
CCDC9 (UniProt Q9Y3X0),thermal stability z-score,[1]; [3],1.57
same,thermal stability z-score,[1]; arsenate co-treatment: none,1.4
same,thermal stability z-score,[2],-0.162
CCDC12 (UniProt Q8WUD4),thermal stability z-score,[1]; [3],0.646
same,thermal stability z-score,[1]; arsenate co-treatment: none,0.397
same,thermal stability z-score,[2],-0.605
CCDC18 (UniProt Q5T9S5),thermal stability z-score,[1]; [3],0.0532
same,thermal stability z-score,[1]; arsenate co-treatment: none,-0.042
same,thermal stability z-score,[2],0.0398
CCDC22 (UniProt O60826),thermal stability z-score,[1]; [3],-0.152
same,thermal stability z-score,[1]; arsenate co-treatment: none,-0.59
same,thermal stability z-score,[2],0.0749
CCDC25 (UniProt Q86WR0),thermal stability z-score,[1]; [3],0.415
same,thermal stability z-score,[1]; arsenate co-treatment: none,0.668
same,thermal stability z-score,[2],0.439
CCDC43 (UniProt Q96MW1),thermal stability z-score,[1]; [3],0.776
same,thermal stability z-score,[1]; arsenate co-treatment: none,0.412
same,thermal stability z-score,[2],0.864
CCDC47 (UniProt Q96A33),thermal stability z-score,[1]; [3],-0.4
same,thermal stability z-score,[1]; arsenate co-treatment: none,-0.332
same,thermal stability z-score,[2],-1.21
CCDC50 (UniProt Q8IVM0),thermal stability z-score,[1]; [3],0.557
same,thermal stability z-score,[1]; arsenate co-treatment: none,0.248
same,thermal stability z-score,[2],-0.0338
